Data on 36 molecules can be found in ChEMBL document CHEMBL1126835, “QSAR's from similarity matrices. Technique validation and application in the comparison of different similarity evaluation methods” (J Med Chem, 1993).

Data set [1] can be described thus: Dissociation constant (pKa). In kind it is physicochemical.
In data set [2] the target is T1, Corticosteroid-binding globulin (Homo sapiens) (UniProt P08185).
T1 sequence (whole entry): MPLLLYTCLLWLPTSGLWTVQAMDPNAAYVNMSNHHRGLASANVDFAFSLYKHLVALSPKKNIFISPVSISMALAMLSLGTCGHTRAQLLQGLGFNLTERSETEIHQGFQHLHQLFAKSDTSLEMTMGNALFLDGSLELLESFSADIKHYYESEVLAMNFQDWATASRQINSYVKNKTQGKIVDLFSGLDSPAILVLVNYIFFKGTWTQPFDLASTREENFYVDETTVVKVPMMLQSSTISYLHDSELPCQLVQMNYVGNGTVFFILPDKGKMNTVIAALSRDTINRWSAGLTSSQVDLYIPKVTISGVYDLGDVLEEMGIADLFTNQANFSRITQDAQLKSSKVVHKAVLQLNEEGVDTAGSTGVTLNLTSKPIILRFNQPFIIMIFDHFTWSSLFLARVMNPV
Description: Binding affinity towards human corticosteroid binding globulin.

Data set [3] has as its target T2, Sex hormone-binding globulin (Homo sapiens) (UniProt P04278).
T2 sequence (whole entry): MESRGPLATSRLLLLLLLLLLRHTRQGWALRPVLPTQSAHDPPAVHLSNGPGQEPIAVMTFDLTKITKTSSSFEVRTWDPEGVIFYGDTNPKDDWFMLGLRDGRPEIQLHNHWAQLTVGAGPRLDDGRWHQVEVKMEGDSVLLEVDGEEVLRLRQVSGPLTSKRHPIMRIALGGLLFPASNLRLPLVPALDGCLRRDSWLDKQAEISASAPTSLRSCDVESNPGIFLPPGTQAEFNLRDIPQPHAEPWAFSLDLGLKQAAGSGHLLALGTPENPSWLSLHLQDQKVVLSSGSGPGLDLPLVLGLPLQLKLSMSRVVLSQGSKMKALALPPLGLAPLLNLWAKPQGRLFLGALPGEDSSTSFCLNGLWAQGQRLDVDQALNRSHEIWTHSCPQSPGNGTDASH
Description: Binding affinity towards human testosterone binding globulin.

In the next data set the target is T3, Monoamine oxidase (Homo sapiens, UniProt P21397+P27338).
T3 sequence (P21397 whole entry): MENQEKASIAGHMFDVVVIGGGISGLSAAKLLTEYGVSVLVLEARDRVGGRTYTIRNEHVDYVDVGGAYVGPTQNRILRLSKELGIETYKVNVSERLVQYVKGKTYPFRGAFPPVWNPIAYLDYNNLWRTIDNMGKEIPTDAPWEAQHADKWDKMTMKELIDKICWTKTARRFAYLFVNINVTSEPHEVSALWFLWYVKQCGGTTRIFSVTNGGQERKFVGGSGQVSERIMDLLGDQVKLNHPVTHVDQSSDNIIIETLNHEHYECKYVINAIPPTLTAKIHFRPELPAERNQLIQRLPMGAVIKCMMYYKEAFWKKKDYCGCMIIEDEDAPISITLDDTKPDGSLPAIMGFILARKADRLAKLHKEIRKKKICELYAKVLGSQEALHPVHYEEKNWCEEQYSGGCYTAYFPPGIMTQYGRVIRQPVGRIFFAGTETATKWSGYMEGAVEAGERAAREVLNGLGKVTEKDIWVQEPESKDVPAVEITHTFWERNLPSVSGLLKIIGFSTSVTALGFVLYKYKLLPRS
T3 sequence (P27338 whole entry): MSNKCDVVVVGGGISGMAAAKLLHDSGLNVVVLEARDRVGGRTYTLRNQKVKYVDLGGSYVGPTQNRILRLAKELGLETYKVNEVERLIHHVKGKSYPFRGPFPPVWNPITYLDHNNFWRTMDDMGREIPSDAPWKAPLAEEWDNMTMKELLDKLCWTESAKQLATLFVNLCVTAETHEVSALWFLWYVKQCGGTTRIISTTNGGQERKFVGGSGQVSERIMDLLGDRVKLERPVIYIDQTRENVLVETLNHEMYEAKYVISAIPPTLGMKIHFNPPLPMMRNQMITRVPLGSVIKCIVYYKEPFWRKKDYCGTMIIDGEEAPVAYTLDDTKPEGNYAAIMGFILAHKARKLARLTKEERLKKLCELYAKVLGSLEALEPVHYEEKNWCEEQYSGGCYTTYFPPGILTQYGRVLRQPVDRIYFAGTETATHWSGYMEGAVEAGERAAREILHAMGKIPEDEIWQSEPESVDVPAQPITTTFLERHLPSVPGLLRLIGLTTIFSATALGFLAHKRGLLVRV
Description: Binding affinity towards monoaminooxidase Relative to MPTP. Type of data set: protein assay.

As to `CN1C=CNC1`, in data set [1], the pKa turned out to be 7.12. On to `C[C@]12CCC(=O)C=C1CC[C@@H]1[C@@H]2C(=O)C[C@@]2(C)[C@H]1CC[C@]2(O)C(=O)CO`, for which the Log 1/K was -6.89 in data set [2] and -6.43 in data set [3]. In the same order, the values of `C[C@]12C[C@H](O)[C@H]3[C@@H](CCC4=CC(=O)CC[C@@]43C)[C@@H]1CC[C@@H]2C(=O)CO` are -7.88 and -6.34. In the same order, the values of `CCCCc1cc2c(cn1)[nH]c1ccccc12` are -5 and -9.11. In the same order, the values of `C[C@]12CCC(=O)C=C1CC[C@@H]1[C@@H]2CC[C@@]2(C)[C@H]1CC[C@]2(O)C(=O)CO` are -7.88 and -7.2. For `O=[N+]([O-])C1NC=CN1`, the pKa in data set [1] was -0.81. As for `C[C@]12CC[C@H](O)CC1=CC[C@@H]1[C@@H]2CC[C@]2(C)C(=O)CC[C@@H]12`, the results for the Log 1/K in data set [2] and in data set [3] were -5 and -7.82, respectively. Regarding `NC1NC=CN1`, in data set [1], the pKa is 8.46. Still for that read-out and setting: in the case of `C1=CNCN1` it was 6.99; in that of `C1=CNC(c2ccccc2)N1`, 6.48; in that of `CN1C=CNC1F` (stereo unspecified), 2.3. As to `C[C@]12CCC(=O)C=C1CC[C@@H]1[C@@H]2CC[C@]2(C)C(=O)CC[C@@H]12`, the Log 1/K is -5.76 in data set [2] and -7.46 in data set [3].

For the molecule `C[C@]12CCC(=O)C=C1CC[C@@H]1[C@@H]2[C@@H](O)C[C@@]2(C)[C@H]1CC[C@]2(O)C(=O)CO`, the results for the Log 1/K in data set [2] and in data set [3] were -7.88 and -6.2, respectively. `CC1NC=CN1`: in data set [1], the pKa was 7.86.

Regarding `C1=CNC(c2ccncc2)N1`, the pKa in data set [1] worked out at 5.36. Take `C[C@]12CC[C@@H](O)C[C@H]1CC[C@@H]1[C@@H]2CC[C@]2(C)C(=O)CC[C@@H]12`: the Log 1/K is -5.22 in data set [2] and -6.15 in data set [3]. In the same order, the values of `CC(=O)[C@H]1CC[C@H]2[C@@H]3CCC4=CC(=O)CC[C@]4(C)[C@H]3CC[C@]12C` are -7.38 and -6.94. Consider `C[C@]12CC[C@H]3[C@@H](CCC4=CC(=O)CC[C@@]43C)[C@@H]1CC[C@@H]2C(=O)CO`, for which the Log 1/K in data set [2] was -7.65; in data set [3], -7.38. In the same order, the values of `CC(=O)[C@H]1CC[C@H]2[C@@H]3CC=C4C[C@@H](O)CC[C@]4(C)[C@H]3CC[C@]12C` are -5.22 and -7.15.

In the case of `CC(=O)[C@@]1(O)CC[C@H]2[C@@H]3CC=C4C[C@@H](O)CC[C@]4(C)[C@H]3CC[C@@]21C`, the Log 1/K in data set [2] is -5; in data set [3] it was -6.36. Regarding `C[C@]12CCC(=O)C=C1CCC1C3CC[C@H](C(=O)CO)[C@@]34C[C@H](OC4O)C12` (stereo partly specified), the Log 1/K in data set [2] is -6.28; in data set [3] it was -5.32. In the same order, the values of `CC(=O)[C@@]1(O)CC[C@H]2[C@@H]3CCC4=CC(=O)CC[C@]4(C)[C@H]3CC[C@@]21C` are -7.74 and -7.

Regarding `CCC1NC=CN1`, the pKa in data set [1] came out at 7.73.

In turn, `CN1C=CNC1Br` (stereo unspecified) yielded a pKa in data set [1] of 3.82. Still for that read-out and setting: with `ClC1NC=CN1` the figure was 3.55. The molecule `CN1CC=C(c2ccc(F)cc2)CC1` showed a Relative activity on Monoamine oxidase of 2.

Turning to `FC1NC=CN1`, the pKa in data set [1] was found to be 2.4. The molecule `COc1ccccc1C1=CCN(C)CC1` came in with a Relative activity on Monoamine oxidase of 3. Same read-out and setting: with `Cc1ccccc1C1=CCN(C)CC1` the figure was 3; with `CCN1CC=C(c2ccccc2)CC1`, 2; with `Cc1cccc(C)c1C1=CCN(C)CC1`, 3. As for `C[C@]12CCC3C4=C(CCC3C1CCC2=O)CC(=O)C=C4` (stereo partly specified), the Log 1/K was -5 in data set [2] and -8.18 in data set [3]. `BrC1NC=CN1`: the pKa in data set [1] was 3.79.

For `CC(C)N1CC=C(c2ccccc2)CC1`, the Relative activity on Monoamine oxidase was 1.

Consider `CSC1NC=CN1`, for which the pKa in data set [1] came out at 5.95.

As to `CN1C=CNC1N` (stereo unspecified), the pKa in data set [1] came to 8.54.
